Structures can show the parent of a compound that is named as a salt.
System: STING activation (IFNβ release) in iBMDMs
Assay: IFNβ release ELISA after STING ligand (or LPS) stimulation, iBMDMs
Format: cell-based, mouse
Method in brief: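 IFNβ released into the medium was quantified by ELISA (mouse or human kit) after iBMDM stimulation with the canonical STING agonist 3′3′-cGAMP or with LPS.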

[1] = iBMDMs, 3′3′-cGAMP 10 μg/ml, 16 hours, compound 10 μM

| Compound | fold increase in IFN-β release [1] [fold] | other results |
| --- | --- | --- |
| COc1cc2c(N3CCN(C(=O)Nc4ccc(OC(C)C)cc4)CC3)ncnc2cc1OCCCN1CCCCC1 [Tandutinib (MLN518), Tandutinib] | 0.65 | – |
| COc1cc2c(cc1OC)CN(CCc1ccc(NC(=O)c3cc(OC)c(OC)cc3NC(=O)c3cnc4ccccc4c3)cc1)CC2 [Tariquidar] | 0.77 | – |
| CCCc1nc2c(C)cc(-c3nc4ccccc4n3C)cc2n1Cc1ccc(-c2ccccc2C(=O)O)cc1 [Telmisartan] | 2.26 | – |
| CO[C@H]1C[C@@H]2CC[C@@H](C)[C@@](O)(O2)C(=O)C(=O)N2CCCC[C@H]2C(=O)O[C@H]([C@H](C)C[C@@H]2CC[C@@H](OC(=O)C(C)(CO)CO)[C@H](OC)C2)CC(=O)[C@H](C)/C=C(\C)[C@@H](O)[C@@H](OC)C(=O)[C@H](C)C[C@H](C)/C=C/C=C/C=C/1C [Temsirolimus (CCI-779, NSC 683864), Temsirolimus] | 0.73 | – |
| CC(C)OC(=O)OCOP(=O)(CO[C@H](C)Cn1cnc2c(N)ncnc21)OCOC(=O)OC(C)C [Tenofovir Disoproxil Fumarate] | 2.88 | – |
| CN(C)CCCCC(=O)Nc1ccc(NC(=S)NC(=O)c2ccc(C(C)(C)C)cc2)cc1 [Tenovin-6] | 0.53 | – |
| O=C(NCc1ccccc1)c1csc(Nc2ccncn2)n1 [Thiazovivin] | 8.11 | 3′3′-cGAMP-induced IFNβ release [1]: promoted |
| CCCSc1nc(N[C@@H]2C[C@H]2c2ccc(F)c(F)c2)c2nnn([C@@H]3C[C@H](OCCO)[C@@H](O)[C@H]3O)c2n1 [Ticagrelor] | 1.70 | – |
| COc1ccc2cc(-c3nc(-c4ccc([S+](C)[O-])cc4)[nH]c3-c3ccncc3)ccc2c1 (stereo not shown) [Tie2 kinase inhibitor] | 2.04 | – |
| O=c1oc2cc(O)ccc2s1 [Tioxolone] | 1.88 | – |
| C[C@@H]1CCN(C(=O)CC#N)C[C@@H]1N(C)c1ncnc2[nH]ccc12 [Tofacitinib (CP-690550, Tasocitinib), Tofacitinib] | 1.49 | – |
| c1ccc(CC2=NCCN2)cc1 [Tolazoline HCl] | 1.46 | – |
| Cc1c(Cl)cccc1Nc1ccccc1C(=O)O [Tolfenamic Acid] | 2.19 | – |
| Cc1ccccc1C(=O)Nc1ccc(C(=O)N2CCCC(O)c3cc(Cl)ccc32)c(C)c1 (stereo not shown) [Tolvaptan] | 1.20 | – |
| CCOC(=O)N1c2ccc(C(F)(F)F)cc2[C@@H](N(Cc2cc(C(F)(F)F)cc(C(F)(F)F)c2)C(=O)OC)C[C@H]1CC [Torcetrapib] | 3.84 | – |
| CN(C)CCOc1ccc(/C(=C(/CCCl)c2ccccc2)c2ccccc2)cc1 [Toremifene Citrate] | 0.19 | – |
| Cn1c(=O)cc(N2CCC[C@@H](N)C2)n(Cc2cc(F)ccc2C#N)c1=O [Trelagliptin] | 1.80 | – |
| Nc1nc(N)c2nc(-c3ccccc3)c(N)nc2n1 [Triamterene] | 0.99 | – |
| CC(/C=C/C(=O)NO)=C\[C@@H](C)C(=O)c1ccc(N(C)C)cc1 [Trichostatin A (TSA), Trichostatin A] | 0.39 | – |
| CCC(COC(=O)c1cc(OC)c(OC)c(OC)c1)(c1ccccc1)N(C)C (stereo not shown) [Trimebutine] | 0.30 | – |
| O=C(O[C@H]1C[C@H]2CC[C@@H](C1)[N+]21CCCC1)C(O)(c1ccccc1)c1ccccc1 [Trospium chloride] | 0.76 | – |
| O=C(CCCCCCC(=O)Nc1ccc([C@H]2O[C@@H](CSc3nc(-c4ccccc4)c(-c4ccccc4)o3)C[C@@H](c3ccc(CO)cc3)O2)cc1)NO [Tubacin] | 1.05 | – |

| Compound | fold increase in IFN-β release [1] [fold] | other results |
| --- | --- | --- |
| CC(C)(C)c1cc(/C=C(\C#N)C(N)=S)cc(C(C)(C)C)c1O [Tyrphostin AG 879] | 1.99 | – |
| CCO.N#CC(=C(/N)Sc1ccccc1N)/C(C#N)=C(\N)Sc1ccccc1N [U0126-EtOH] | 0.70 | – |
| O=C(c1cncc(Br)c1)N1CCC(N2CCCC2)CC1 [UNC669] | 1.99 | – |
| NC(=O)c1cccc(-c2cccc(OC(=O)NC3CCCCC3)c2)c1 [URB597] | 2.07 | – |
| CS(=O)(=O)c1ccc(-c2cnc(N)c(C(=O)Nc3ccccc3)n2)cc1 [VE-821] | 0.45 | – |
| CNCc1ccc(-c2cc(-c3nc(-c4ccc(S(=O)(=O)C(C)C)cc4)cnc3N)on2)cc1 [VE-822] | 0.86 | – |
| Cc1cc(Nc2cc(N3CCN(C)CC3)nc(Sc3ccc(NC(=O)C4CC4)cc3)n2)[nH]n1 [VX-680 (Tozasertib, MK-0457), Tozasertib] | 0.91 | – |
| O=c1ncn2nc(Sc3ccc(F)cc3F)ccc2c1-c1c(Cl)cccc1Cl [VX-745] | 6.18 | – |
| CCO[C@@H]1OC(=O)C[C@@H]1NC(=O)[C@@H]1CCCN1C(=O)[C@@H](NC(=O)c1ccc(N)c(Cl)c1)C(C)(C)C [VX-765] | 1.67 | – |
| Cc1ccc(NC(=O)C2(c3ccc4c(c3)OC(F)(F)O4)CC2)nc1-c1cccc(C(=O)O)c1 [VX-809 (Lumacaftor), Lumacaftor] | 1.07 | – |
| COc1cc2c(Nc3ccc(Br)cc3F)ncnc2cc1OCC1CCN(C)CC1 [Vandetanib (ZD6474), Vandetanib] | 0.25 | – |
| CCc1c(C(=O)C(N)=O)c2c(OCC(=O)O)cccc2n1Cc1ccccc1 [Varespladib (LY315920), Varespladib] | – | fold increase in IFN-β release (16 h, 10 µM): 1.18 fold |
| C[C@]1(c2nc3c(C(N)=O)cccc3[nH]2)CCCN1 [Veliparib (ABT-888), Veliparib] | 0.66 | – |
| CCCS(=O)(=O)Nc1ccc(F)c(C(=O)c2c[nH]c3ncc(-c4ccc(Cl)cc4)cc23)c1F [Vemurafenib (PLX4032, RG7204), Vemurafenib] | 0.59 | – |
| N#C[C@@H]1CCCN1C(=O)CNC12CC3CC(CC(O)(C3)C1)C2 [Vildagliptin (LAF-237), Vildagliptin] | 1.04 | – |
| C[C@@H](c1ncncc1F)[C@](O)(Cn1cncn1)c1ccc(F)cc1F [Voriconazole] | 2.35 | – |
| c1ccc(NCc2ccc(CNc3ccccn3)cc2)nc1 [WZ811] | 1.67 | – |
| C=CC(=O)Nc1cccc(Oc2nc(Nc3ccc(N4CCN(C)CC4)cc3OC)ncc2Cl)c1 [WZ4002] | 1.42 | – |
| CCC(=O)Nc1cccc(Oc2nc(Nc3ccc(N4CCN(C)CC4)cc3OC)ncc2Cl)c1 [WZ4003] | 0.12 | – |
| Cc1cc(-c2ccc(CC(=O)Nc3ccc(-c4cccnc4)cc3)cc2)ccn1 [Wnt-059 (C59)] | 0.13 | – |
| Oc1nc(-c2ccc(C(F)(F)F)cc2)nc2c1CSCC2 [XAV-939] | 1.00 | – |
| CC(C)OC(=O)C1=CN(C(=O)c2ccc(F)c(F)c2)CC(C)(C)c2c1[nH]c1ccccc21 [XL335] | 0.26 | – |

| Compound | fold increase in IFN-β release [1] [fold] | other results |
| --- | --- | --- |
| CCOc1cc(N2CCC(O)CC2)ccc1Nc1ncc2c(n1)N(C)c1ccccc1C(=O)N2C [XMD8-92] | 2.38 | – |
| COCCn1c2c([n+](Cc3cnccn3)c1C)C(=O)c1ccccc1C2=O [YM155 (Sepantronium Bromide), Sepantronium Bromide] | 0.30 | – |
| C[C@H](NC(=O)Cc1cc(F)cc(F)c1)C(=O)N[C@@H]1C(=O)N(C)c2ccccc2-c2ccccc21 [YO-01027] | 1.74 | – |
| Cc1cc(C)nc(NS(=O)(=O)c2ccc(NC(=S)NC(=O)COc3ccc(Br)cc3Cl)cc2)n1 [ZCL278] | 2.52 | – |
| COc1cc2ncnc(Nc3ccc(Cl)cc3F)c2cc1OC [ZM 306416] | 0.14 | – |
| COc1cc2c(Nc3ccc(NC(=O)c4ccccc4)cc3)ncnc2cc1OCCCN1CCOCC1 [ZM 447439] | 0.69 | – |
| O=c1ncccn1[C@@H]1O[C@H](CO)[C@@H](O)[C@H]1O [Zebularine] | 1.50 | – |
| COc1nc(C)cnc1NS(=O)(=O)c1cccnc1-c1ccc(-c2nnco2)cc1 [Zibotentan (ZD4054), Zibotentan] | 1.17 | – |
| O[C@@H](COc1cccc2ncccc12)CN1CCN([C@@H]2c3ccccc3[C@@H]3[C@H](c4ccccc42)C3(F)F)CC1 [Zosuquidar (LY335979) 3HCl, Zosuquidar] | 4.10 | – |
| (−)-MK 801 Maleate | 4.76 | – |
| (−)-Parthenolide | 0.16 | – |
| HO-3867 | 0.52 | – |
| HSP990 (NVP-HSP990) | 0.26 | – |
| IM-12 | 2.17 | – |
| Ifenprodil Tartrate | 1.71 | – |
| KX2-391 | 0.77 | – |
| Maraviroc | 2.50 | – |
| OG-L002 | 1.06 | – |
| PF-04620110 | 3.43 | – |
| Pifithrin-μ | 0.16 | – |
| S3I-201 | 0.88 | – |
| SN-38 | 1.72 | – |

Source: patent US11179412B2, “Methods of treating conditions involving elevated inflammatory response” (University of Pittsburgh—Of the Commonwealth System of …, priority 2017, dated 2021)
